# Read-outs that look alike come from different tables or passages of the source. Marks after values point to notes of the source that are not given here.
# How the values were obtained:
# factor IIa = conditions: definition of sevuparin; no test described; cited from earlier work
# [1] = test system: Kidney Disease and Anemia of Kidney Disease (KD) Mouse Model; assay: Anemia of CKD mouse model (adenine rich diet), Example 3: blood and serum analysis, body weight; type: in vivo, C57BL/6J male mice
# Source text: (§1) All experimental procedures were approved by the Animal Care and Use Committee of University of Brescia. All animals were maintained on normal diet (“Chow” or Standard diet, 4RF21, obtained from Mucedola s.r.l) if not specified otherwise as part of the “Anemia of Chronic Kidney Disease (CKD) mouse model” experiment as described below.
# (§2) Animals. The C57BL/6J male mice were purchased from Envigo RMS S.r.l.
# (§3) Kidney damage, kidney disease and anemia were induced by an adenine high phosphorus diet denoted as “adenine rich diet” (ARD) (0.2% Adenine; 0.9% Phosphorus; 0.6% Calcium; 20% Casein; Cod. S1102-E750 (purchased from Charles River, Manufacturer: Ssniff Spezialdiäten GmbH).
# (§4) ARD was fed to C57BL/6J male mice having reached an age of five-weeks. […] All animals were maintained on ARD or normal diet (Standard diet, 4RF21, Mucedola s.r.l), at timings and extents described in detail for each experiment below. Groups of mice were also kept under normal diet (Standard diet) as healthy control group, for each experiment. Mice had access to food and diet ad libitum.
# (§5) Adenine rich diet (ARD) (0.2% Adenine; 0.9% Phosphorus; 0.6% Calcium; 20% (Ssniff Spezialdiäten GmbH), sevuparin 10 mg/kg (Opocrin S.p.A., Apotek Produktion & Laboratorier AB, subcutaneously administered, sc), erythropoietin (EPO, Darbepoietin alfa, Aranesp, AMGEN INC.) intraperitoneally adminstered, ip)
# (§6) The hematological parameters hemoglobin (Hb) and hematocrit (Ht) were analyzed using the Hemo Vet Instrument (Infratech) by collecting a single drop of blood from the dorsal pedal vein. The animals weight were monitored weekly in the morning at the following time points of treatment: At start of treatment (P0); after one week of treatment (T1); after two weeks of treatment (T2); after three weeks of treatment (T3); after four weeks of treatment (T4); after five weeks of treatment (T5); after six weeks of treatment (T6); after seven weeks of treatment (T7); after eight weeks of treatment (T8); and after nine weeks of treatment (T9).
# (§7) Reticulocyte hemoglobin content (Ret-He), serum hepcidin and serum creatinine (analysis performed by Izler Institute) were analyzed at the end of each experiment)
# (§8) Mice were sacrificed at the indicated time points and blood and kidneys were collected for analysis at the end-point of each experiment.
# (§9) At the end-point, mouse serum hepcidin was quantified using ELISA kit (Cod. SKU #HMC-001; Intrinsic LifeScience).
# (§10) Serum creatinine and blood Reticulocytes-hemoglobin (Ret-He) were analyzed by IZLER Institute (Istituto Zooprofilattico Sperimentale della Lombardia e Dell′Emilia Romagna), using standard procedures.
# ARD Pretreatment for 5.5 Weeks Followed by 3 or 6 Weeks Treatment with Control, Sevuparin, Erythropoietin (EPO), or a Combination of EPO and Sevuparin
# C57BL/6J male mice were exposed to ARD pretreatment for 5.5 weeks followed by either 3 or 6 weeks of randomized allocation to treatments as defined below still with maintained ARD exposure. One group of mice was given normal diet (no ARD) for the entire experiment, as healthy control. • a) Treatment control: mice treated with PBS s.c. every day for 3 and 6 weeks respectively. • b) Treatment with sevuparin: mice treated with 10 mg/kg Sevuparin s.c. every day for 3 and 6 weeks respectively. • c) Treatment with EPO: mice treated with 50 IU EPO i.p. twice a week for 3 weeks and mice treated with 50 IU EPO i.p. twice a week for 3 weeks followed by treatment with 25 IU EPO i.p. once a week for the subsequent 3 weeks. • d) Treatment with EPO+sevuparin: mice treated with 10 mg/kg sevuparin s.c. every day and 50 IU EPO i.p. twice a week for 3 weeks and mice treated with 10 mg/kg sevuparin s.c. every day and 50 IU EPO i.p. twice a week for the first 3 weeks followed by treatment with 10 mg/kg sevuparin s.c. every day and 25 IU EPO i.p. once a week for the subsequent 3 weeks.
# mouse kidneys [2] = conditions: 3 weeks treatment, 20x magnification, compared to kidneys without sevuparin
# Experimental: (§11) C57BL/6J male mice were exposed to ARD pretreatment for 9 weeks followed by 3 weeks of randomized allocation to treatments as defined below still with maintained ARD exposure. One group of mice was given normal diet (no ARD) for the entire experiment, as healthy control. • a) Treatment with control: mice treated with PBS s.c. every day for 3 weeks. • b) Treatment with sevuparin: mice treated with 10 mg/kg Sevuparin s.c. every day for 3 weeks.
# [3] = test system: Kidney Disease and Anemia of Kidney Disease (KD) Mouse Model
# Source text: as §1, §2, §3, §4, §5, §6, §7, §8, §9, §10
# ARD Pretreatment for 9 Weeks Followed by 3 Weeks Treatment with Either Control or Sevuparin
# as §11
# mouse kidneys [4] = assay: Example 2: macroscopic and histological status of kidneys (H&E, Sirius Red); type: in vivo, C57BL/6J male mice
# Experimental: (§12) C57BL/6J male mice were exposed to ARD pretreatment for 9 weeks followed by 2 weeks of randomized allocation to treatments as defined below still with maintained ARD exposure, after which ARD was omitted but treatments were maintained during 7 weeks of recovery. One group of mice was given normal diet (no ARD) for the entire experiment, as healthy control. • a) Treatment with control: mice treated with PBS s.c. every day for 2+7 weeks. • b) Treatment with sevuparin: mice treated with 10 mg/kg Sevuparin s.c. every day for 2+7 weeks. • c) Treatment with […]: mice treated with 50 IU EPO i.p. twice a week for 2+7 weeks. • d) Treatment with EPO+sevuparin: mice treated with 50 IU EPO i.p. twice a week and 10 mg/kg Sevuparin s.c. every day for 2+7 weeks.
# [5] = test system: Kidney Disease and Anemia of Kidney Disease (KD) Mouse Model; assay: Anemia of CKD mouse model (adenine rich diet), Example 2: blood and serum analysis, body weight; type: in vivo, C57BL/6J male mice
# Source text: as §1, §2, §3, §4, §5, §6, §7, §8, §9, §10
# ARD Pre-Treatment for 9 Weeks Followed by 2 Weeks Treatment with Either Control, Sevuparin, Erythropoietin (EPO) or a Combination of EPO and Sevuparin, Followed by 7 Weeks Recovery without ARD but with Maintained Treatments.
# as §12
# Hemoglobin (Hb), hematocrit (Ht), weigh (wt), serum-creatitine (S-crea), reticulocyte hemoglobin (Ret-He) content and serum-hepcidin (nM) was measured in the mice.
# factor Xa = conditions: definition of sevuparin; no test described; cited from earlier work
# [6] = ARD 5.5 weeks then treatment with maintained ARD
# [7] = ARD 5.5 weeks, then 3 or 6 weeks treatment with maintained ARD (time point not given), sevuparin 10 mg/kg s.c. every day, EPO 50 IU i.p. twice a week (25 IU once a week for subsequent 3 weeks), mean
# [8] = 3 weeks treatment, compared to mice not treated with sevuparin
# [9] = ARD 9 weeks, then sevuparin 10 mg/kg s.c. every day for 3 weeks with maintained ARD, mean
# [10] = 2+7 weeks treatment, compared to mice without any treatment / other treatment groups
# [11] = ARD 9 weeks, then 2 weeks treatment on ARD + 7 weeks without ARD, sevuparin 10 mg/kg s.c. every day, EPO 50 IU i.p. twice a week, mean
substance,measurement,setting,value
sevuparin,antifactor 11a activity,factor IIa,up to 10 IU/mg
same,"blood level of hemoglobin (Hb), in words",[1]; [6],did not increase
same,"body weight (wt), in words",[1]; [6],did not increase
same,"hematocrit (Ht), in words",[1]; [6],did not increase
same,"serum level of creatinine (s-Crea), in words","[1]; ARD 5.5 weeks then treatment with maintained ARD, compared to mice without any treatment",reduced
same,Hb,[1]; [7],9.77^(3) g/dL
same,Ht,[1]; [7],28.67^(8) %
same,Ret-He,[1]; [7],14.45^(23)** pg
same,S-Crea,[1]; [7],0.82^(18) mg/dL
same,Wt,[1]; [7],17.60^(13) g
same,impact on the serum level of hepcidin (FIG. 3A),[1]; at 3 weeks treatment,beneficial impact
same,beneficial impact on the serum level of hepcidin vs control (FIG. 3B),[1]; at 6 weeks treatment,no longer present
same,effect on the micrographs of the mouse kidneys (FIG. 1G),mouse kidneys [2],positive effect
same,"Hematocrit levels, in words",[3]; [8],increased
same,"Hemoglobin blood levels, in words",[3]; [8],increased
same,"blood level of reticulocyte-hemoglobin (Ret-He), in words",[3]; [8],increased
same,"body weight, in words",[3]; [8],gained body weight
same,"serum creatinine level, in words",[3]; [8],increased
same,"serum level of hepcidin, in words",[3]; [8],reduced
same,S-Hepcidin,"[3]; ARD 9 weeks, then sevuparin 10 mg/kg s.c. every day for 3 weeks with maintained ARD, ELISA, mean",36.83^(18) nM
same,Hb,[3]; [9],10.80^(3) g/dL
same,Ht,[3]; [9],31.67^(6) %
same,Ret-He,[3]; [9],14.33^(15) pg
same,S-Crea,[3]; [9],0.73^(12) mg/dL
same,Wt,[3]; [9],15.00^(9) g
same,"kidney damage, H&E staining (FIG. 2B)","mouse kidneys [4]; 40x magnification, 11 weeks of adenine diet, compared to the untreated control",reduced the damage
same,"collagen deposits (fibrosis), Sirius Red Staining (FIG. 2B)","mouse kidneys [4]; 40x magnification, compared to AD 11 weeks+PBS",reduction of the collagen deposits
same,"physical status of the mouse kidneys, macroscopic photographs (FIG. 2A)",mouse kidneys [4]; compared to mouse kidneys that had not received the same therapy,"substantially less cysts, more normal colour and a more homogenous appearance"
same,"serum level of hepcidin, in words",[5]; 2+7 weeks treatment,markedly reduced
same,"blood level of reticulocyte hemoglobin (Ret-HE), in words",[5]; [10],increased
same,"body weight (wt), in words",[5]; [10],increased
same,"hematocrit (Ht), in words",[5]; [10],increased
same,"serum level of creatinine (s-Crea), in words",[5]; [10],reduced
same,Hb,[5]; [11],9.45^(3) g/dL
same,Ht,[5]; [11],27.75^(8) %
same,Ret-He,[5]; [11],15.78^(23) pg
same,S-Crea,[5]; [11],0.78^(18) mg/dL
same,S-Hepcidin,[5]; [11],22.32^(28) nM
same,Wt,[5]; [11],25.75^(13) g
same,antifactor Xa activity,factor Xa,up to 10 IU/mg

# — patent US20260216232A1, “SEVUPARIN FOR THE TREATMENT OF CHRONIC KIDNEY DISEASE” (Modus Therapeutics AB, priority 2022, published 2026)
